# Measured values from US20240025919A1, “AZA-TETRACYCLIC OXAZEPINE COMPOUNDS AND USES THEREOF” (Genentech, Inc., priority 2022, published 2024).
# Tests used:
# KRAS WT = KRAS WT (Homo sapiens (Human), UniProt P01116); assay: KRAS WT Biochemical Assay, BODIPY-GDP Exchange TR-FRET (Example 501; 3 nM KRAS WT, 3 nM SOS1, 60-minute incubation); details: read-out: KRas(wt) GDP HTRF IC50
# Method: Example 501: KRAS WT Biochemical Assay, BODIPY-GDP Exchange TR-FRET. Biochemical compound potencies are assessed by evaluating inhibition of SOS1-mediated nucleotide exchange in KRAS WT. In this assay, the SOS1-promoted exchange of fluorescently-labeled GDP (BOPIDY-GDP) is monitored by time-resolved fluorescence resonance energy transfer (TR-FRET). Compounds solubilized in DMSO are dispensed as concentration series into 384-well white assay plates, and 5 uL assay buffer (20 mM HEPES, pH 7.5, 50 mM NaCl, 10 mM MgCl2, 0.01% Tween-20 and 1 mM dithiothreitol) is added just prior to the start of the assay. A preformed complex of 3 nM biotin-tagged recombinant human KRAS WT and 0.3 nM terbium-labeled streptavidin (CisBIO) prepared in 5 uL/well assay buffer is added and allowed to incubate for 10-minutes at room temperature. The reaction is initiated with the addition of 5 uL 3 nM recombinant human SOS1 and 300 nM BODIPY-GDP in assay buffer. After a 60-minute incubation, the fluorescence is measured with excitation at 337 nm and emission at 490 and 520 nm. The TR-FRET ratio is determined as the fluorescence at 520 nm divided by the fluorescence at 490 nm multiplied by 10,000. The results are normalized to percent inhibition based on control samples: DMSO (0% inhibition) and control compound at a concentration that inhibits completely (100% inhibition). The normalized TR-FRET results are plotted against compound concentration, and the data are fit to a 4-parameter Hill equation to determine the IC50 values.
# KRAS G12D = KRAS G12D (Homo sapiens (Human), UniProt P01116, G12D); assay: KRAS G12D LoEnz Biochemical Assay, BODIPY-GDP Exchange TR-FRET (SOS1-mediated nucleotide exchange); details: read-out: KRas (G12D) GDP HTRF IC50
# Method: Example 500: KRAS G12D LoEnz Biochemical Assay, BODIPY-GDP Exchange TR-FRET. Biochemical compound potencies are assessed by evaluating inhibition of SOS1I-mediated nucleotide exchange in KRAS G121D. In this assay, the SOS1-promoted exchange of fluorescently-labeled GDP (BOPIDY-GDP) is monitored by time-resolved fluorescence resonance energy transfer (TR-FRET). Compounds solubilized in DMS0 are dispensed as concentration series into 384-well white assay plates. A preformed complex of biotin-tagged recombinant human KRAS (0.06 nM mutant G1 2D) and 0.06 nM terbium-labeled streptavidin (CisBIO) prepared in 10 uL/well assay buffer (20 mM HEPES, pH 7.5, 50 mM NaCl, 10 mMMMgCl2, 0.0100 Tween-20 and 1 mM dithiothreitol) is added and allowed to incubate for 10-minutes at room temperature. The reaction is initiated with the addition of 5 uL 300 nM recombinant human SOS1 and 300 nM BODIPY-GDP in assay buffer. After a 120-minute incubation, the fluorescence is measured with excitation at 337 nm and emission at 490 and 520 nm. The TR-FRET ratio is determined as the fluorescence at 520 nm divided by the fluorescence at 490 nm multiplied by 10,000. The results are normalized to percent inhibition based on control samples: DMSO (0% inhibition) and control compound at a concentration that inhibits completely (100% inhibition). The normalized TR-FRET results are plotted against compound concentration, and the data are fit to a 4-parameter Hill equation to determine the IC50 values.
# KRAS G12D, sequence (P01116-2 other isoform, or with tags, fused parts or gaps G12D): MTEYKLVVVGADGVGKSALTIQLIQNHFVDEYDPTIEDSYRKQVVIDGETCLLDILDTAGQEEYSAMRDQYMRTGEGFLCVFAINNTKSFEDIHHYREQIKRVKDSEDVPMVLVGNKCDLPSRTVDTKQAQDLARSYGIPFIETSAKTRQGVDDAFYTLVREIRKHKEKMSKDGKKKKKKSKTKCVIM
# KRAS WT, sequence (P01116-2 other isoform, or with tags, fused parts or gaps): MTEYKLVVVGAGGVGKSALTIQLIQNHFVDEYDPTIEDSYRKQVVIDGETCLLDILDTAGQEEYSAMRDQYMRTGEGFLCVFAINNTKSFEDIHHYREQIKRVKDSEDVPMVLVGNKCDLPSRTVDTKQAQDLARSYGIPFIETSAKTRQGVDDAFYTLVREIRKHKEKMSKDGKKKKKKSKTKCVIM
SMILES,IC50 (KRAS WT) [µM],IC50 (KRAS G12D) [µM]
"C[C@@H]1Oc2nc(-c3cncc4ccccc34)c(F)c3nc(OC[C@@]45CCCN4CC4(CC4(F)F)C5)nc(c23)N2C[C@H]3CC[C@H](N3)[C@@H]12 (stereo partly drawn) [Compound 30, (5S,5aS,6S,9R)-12-(((7a′S)-2,2-difluorodihydro-1′H,3′H-spiro[cyclopropane-1,2′-pyrrolizin]-7a′(5′H)-yl)methoxy)-1-fluoro-2-(isoquinolin-4-yl)-5-methyl-5a,6,7,8,9,10-hexahydro-5H-4-oxa-3,10a,11,13,14-pentaaza-6,9-methanonaphtho[1,8-ab]heptalene]",0.598,0.0194
"Cc1c(F)c(N)cc(-c2nc3c4c(nc(OC[C@@]56CCCN5C[C@H](OCc5ccc(-c7ccccc7C#N)cc5)C6)nc4c2F)N2C[C@H]4CC[C@H](N4)[C@H]2[C@H](C)O3)c1C(F)(F)F [Compound 32, 4′-((((2R,7aS)-7a-((((5S,5aS,6S,9R)-2-(5-amino-4-fluoro-3-methyl-2-(trifluoromethyl)phenyl)-1-fluoro-5-methyl-5a,6,7,8,9,10-hexahydro-5H-4-oxa-3,10a,11,13,14-pentaaza-6,9-methanonaphtho[1,8-ab]heptalen-12-yl)oxy)methyl)hexahydro-1H-pyrrolizin-2-yl)oxy)methyl)-[1,1′-biphenyl]-2-carbonitrile]",0.000579,0.0002
"C[C@@H]1Oc2nc(-c3c(C(F)(F)F)ccc(N)c3F)c(F)c3nc(OC[C@@]45CCCN4C[C@H](F)C5)nc(c23)N2C[C@H]3CC[C@H](N3)[C@@H]12 [Compound 35, 2-fluoro-3-((5S,5aS,6S,9R)-1-fluoro-12-(((2R,7aS)-2-fluorotetrahydro-1H-pyrrolizin-7a(5H)-yl)methoxy)-5-methyl-5a,6,7,8,9,10-hexahydro-5H-4-oxa-3,10a,11,13,14-pentaaza-6,9-methanonaphtho[1,8-ab]heptalen-2-yl)-4-(trifluoromethyl)aniline]",0.0158,0.00057
"Cc1cc(N)c(F)c(-c2nc3c4c(nc(OC[C@@]56CCCN5C[C@H](F)C6)nc4c2F)N2C[C@H]4CC[C@H](N4)[C@H]2CO3)c1C(F)(F)F [Compound 36, 2-fluoro-3-((5aS,6S,9R)-1-fluoro-12-(((2R,7aS)-2-fluorotetrahydro-1H-pyrrolizin-7a(5H)-yl)methoxy)-5a,6,7,8,9,10-hexahydro-5H-4-oxa-3,10a,11,13,14-pentaaza-6,9-methanonaphtho[1,8-ab]heptalen-2-yl)-5-methyl-4-(trifluoromethyl)aniline]",0.0465,0.00098
"C[C@@H]1Oc2nc(-c3cncc4cccc(Cl)c34)c(F)c3nc(OC[C@@]45CCCN4C[C@H](F)C5)nc(c23)N2C[C@H]3CC[C@H](N3)[C@@H]12 [Compound 38, (5S,5aS,6S,9R)-2-(5-Chloroisoquinolin-4-yl)-1-fluoro-12-(((2R,7aS)-2-fluorotetrahydro-1H-pyrrolizin-7a(5H)-yl)methoxy)-5-methyl-5a,6,7,8,9,10-hexahydro-5H-4-oxa-3,10a,11,13,14-pentaaza-6,9-methanonaphtho[1,8-ab]heptalene]",0.697,0.0139
"C#Cc1cccc2cncc(-c3nc4c5c(nc(OC[C@@]67CCCN6CC6(CC6(F)F)C7)nc5c3F)N3C[C@H]5CC[C@H](N5)[C@H]3[C@H](C)O4)c12 (stereo partly drawn) [Compound 40, (5S,5aS,6S,9R)-12-(((7a′S)-2,2-difluorodihydro-1′H,3′H-spiro[cyclopropane-1,2′-pyrrolizin]-7a′(5′H)-yl)methoxy)-2-(5-ethynylisoquinolin-4-yl)-1-fluoro-5-methyl-5a,6,7,8,9,10-hexahydro-5H-4-oxa-3,10a,11,13,14-pentaaza-6,9-methanonaphtho[1,8-ab]heptalene]",0.0868,0.0013
